Source: EP1285920A1, “C10 Ester sustituted taxanes as antitumor agents” (Florida State University Research Foundation, Inc., priority 2001, dated 2003)

tested on: HCT116; test: In Vitro cytotoxicity measured by the cell colony formation assay; assay type: cell-based, human; conditions: HCT116 colony formation; 72 h with drug, colonies counted after 7 days; ID50 = concentration producing 50% inhibition of colony formation; read-out: IN VITRO ID 50 HCT116
Summary of the method: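 Four hundred cells per dish in McCoy's 5a medium with 10% FBS were allowed to attach for 5 h at 37 °C. They were then exposed to compound for 72 h at 37 °C, added as a 10× stock made fresh in medium. After HBSS rinsing and refeeding, colonies were counted after 7 days.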

Row | Compound | IC50 [nM]
1 | CC=CC(=O)NC(c1cccs1)C(O)C(=O)OC1CC2(O)C(OC(=O)c3ccccc3)C3C4(OC(C)=O)COC4CC(O)C3(C)C(=O)C(OC(=O)CCC)C(=C1C)C2(C)C (stereo not shown) [Compound 3595] | < 1

same assay, conditions: Homo sapiens, HCT-116; read-out: IN VITRO ID 50 HCT116

Row | Compound | IC50 [nM]
2 | CCC(=O)O[C@H]1C(=O)[C@@]2(C)[C@H]([C@H](OC(=O)c3ccccc3)[C@]3(O)C[C@H](OC(=O)[C@H](O)[C@@H](NC(=O)OC(C)C)c4cccs4)C(C)=C1C3(C)C)[C@]1(OC(C)=O)CO[C@@H]1C[C@@H]2O [Compound 3361] | < 1
3 | CCOC(=O)N[C@@H](c1cccs1)[C@@H](O)C(=O)O[C@H]1C[C@@]2(O)[C@@H](OC(=O)c3ccccc3)[C@@H]3[C@]4(OC(C)=O)CO[C@@H]4C[C@H](O)[C@@]3(C)C(=O)[C@H](OC(=O)CC)C(=C1C)C2(C)C [Compound 3370] | < 1
4 | CCCC(=O)O[C@H]1C(=O)[C@@]2(C)[C@H]([C@H](OC(=O)c3ccccc3)[C@]3(O)C[C@H](OC(=O)[C@H](O)[C@@H](NC(=O)c4cccs4)c4cccs4)C(C)=C1C3(C)C)[C@]1(OC(C)=O)CO[C@@H]1C[C@@H]2O [Compound 3408] | < 1
5 | CCCC(=O)O[C@H]1C(=O)[C@@]2(C)[C@H]([C@H](OC(=O)c3ccccc3)[C@]3(O)C[C@H](OC(=O)[C@H](O)[C@@H](NC(=O)OC(C)C)c4ccco4)C(C)=C1C3(C)C)[C@]1(OC(C)=O)CO[C@@H]1C[C@@H]2O [Compound 3417] | < 1
6 | CCC(=O)O[C@H]1C(=O)[C@@]2(C)[C@H]([C@H](OC(=O)c3ccccc3)[C@]3(O)C[C@H](OC(=O)[C@H](O)[C@@H](NC(=O)c4cccs4)c4cccs4)C(C)=C1C3(C)C)[C@]1(OC(C)=O)CO[C@@H]1C[C@@H]2O [Compound 3425] | < 1
7 | CC(=O)O[C@@]12CO[C@@H]1C[C@H](O)[C@@]1(C)C(=O)[C@H](OC(=O)C3CC3)C3=C(C)[C@@H](OC(=O)[C@H](O)[C@@H](NC(=O)c4cccs4)c4cccs4)C[C@@](O)([C@@H](OC(=O)c4ccccc4)[C@H]21)C3(C)C [Compound 3453] | < 1
8 | CCCC(=O)O[C@H]1C(=O)[C@@]2(C)[C@H]([C@H](OC(=O)c3ccccc3)[C@]3(O)C[C@H](OC(=O)[C@H](O)[C@@H](NC(=O)c4ccccc4)C4CC4)C(C)=C1C3(C)C)[C@]1(OC(C)=O)CO[C@@H]1C[C@@H]2O [Compound 3482] | < 1
9 | CCC(=O)O[C@H]1C(=O)[C@@]2(C)[C@H]([C@H](OC(=O)c3ccccc3)[C@]3(O)C[C@H](OC(=O)[C@H](O)[C@@H](NC(=O)OC(C)C)c4ccco4)C(C)=C1C3(C)C)[C@]1(OC(C)=O)CO[C@@H]1C[C@@H]2O [Compound 3522] | < 1
10 | CCOC(=O)N[C@@H](c1ccco1)[C@@H](O)C(=O)O[C@H]1C[C@@]2(O)[C@@H](OC(=O)c3ccccc3)[C@@H]3[C@]4(OC(C)=O)CO[C@@H]4C[C@H](O)[C@@]3(C)C(=O)[C@H](OC(=O)CC)C(=C1C)C2(C)C [Compound 3535] | < 1
11 | CCC(=O)O[C@H]1C(=O)[C@@]2(C)[C@H]([C@H](OC(=O)c3ccccc3)[C@]3(O)C[C@H](OC(=O)[C@H](O)[C@@H](NC(=O)c4cccs4)c4ccco4)C(C)=C1C3(C)C)[C@]1(OC(C)=O)CO[C@@H]1C[C@@H]2O [Compound 3644] | < 1
12 | CCCC(=O)O[C@H]1C(=O)[C@@]2(C)[C@H]([C@H](OC(=O)c3ccccc3)[C@]3(O)C[C@H](OC(=O)[C@H](O)[C@@H](NC(=O)c4cccs4)c4ccco4)C(C)=C1C3(C)C)[C@]1(OC(C)=O)CO[C@@H]1C[C@@H]2O [Compound 3656] | < 1
13 | CC(=O)O[C@@]12CO[C@@H]1C[C@H](O)[C@@]1(C)C(=O)[C@H](OC(=O)C3CC3)C3=C(C)[C@@H](OC(=O)[C@H](O)[C@@H](NC(=O)c4cccs4)c4ccco4)C[C@@](O)([C@@H](OC(=O)c4ccccc4)[C@H]21)C3(C)C [Compound 3663] | < 1
14 | CCOC(=O)N[C@@H](c1ccco1)[C@@H](O)C(=O)O[C@H]1C[C@@]2(O)[C@@H](OC(=O)c3ccccc3)[C@@H]3[C@]4(OC(C)=O)CO[C@@H]4C[C@H](O)[C@@]3(C)C(=O)[C@H](OC(=O)C3CC3)C(=C1C)C2(C)C [Compound 3677] | < 1
15 | CCCC(=O)O[C@H]1C(=O)[C@@]2(C)[C@H]([C@H](OC(=O)c3ccccc3)[C@]3(O)C[C@H](OC(=O)[C@H](O)[C@@H](NC(=O)c4ccco4)c4ccco4)C(C)=C1C3(C)C)[C@]1(OC(C)=O)CO[C@@H]1C[C@@H]2O [Compound 3686] | < 1
16 | CCCC(=O)O[C@H]1C(=O)[C@@]2(C)[C@H]([C@H](OC(=O)c3ccccc3)[C@]3(O)C[C@H](OC(=O)[C@H](O)[C@@H](NC(=O)OCC)c4ccco4)C(C)=C1C3(C)C)[C@]1(OC(C)=O)CO[C@@H]1C[C@@H]2O [Compound 3693] | < 1
17 | CCC(=O)O[C@H]1C(=O)[C@@]2(C)[C@H]([C@H](OC(=O)c3ccccc3)[C@]3(O)C[C@H](OC(=O)[C@H](O)[C@@H](NC(=O)c4ccco4)c4ccco4)C(C)=C1C3(C)C)[C@]1(OC(C)=O)CO[C@@H]1C[C@@H]2O [Compound 3818] | < 1
18 | CC(=O)O[C@@]12CO[C@@H]1C[C@H](O)[C@@]1(C)C(=O)[C@H](OC(=O)C3CC3)C3=C(C)[C@@H](OC(=O)[C@H](O)[C@@H](NC(=O)OC(C)C)c4ccco4)C[C@@](O)([C@@H](OC(=O)c4ccccc4)[C@H]21)C3(C)C [Compound 3853] | < 1

Row | Compound | IC50 [nM]
19 | CC(=O)O[C@@]12CO[C@@H]1C[C@H](O)[C@@]1(C)C(=O)[C@H](OC(=O)C3CC3)C3=C(C)[C@@H](OC(=O)[C@H](O)[C@@H](NC(=O)c4ccco4)c4ccco4)C[C@@](O)([C@@H](OC(=O)c4ccccc4)[C@H]21)C3(C)C [Compound 3866] | < 1
20 | CCCC(=O)O[C@H]1C(=O)[C@@]2(C)[C@H]([C@H](OC(=O)c3ccccc3)[C@]3(O)C[C@H](OC(=O)[C@H](O)[C@@H](NC(=O)OC(C)C)c4cccs4)C(C)=C1C3(C)C)[C@]1(OC(C)=O)CO[C@@H]1C[C@@H]2O [Compound 3909] | < 1
21 | C/C=C/C(=O)N[C@@H](c1ccco1)[C@@H](O)C(=O)O[C@H]1C[C@@]2(O)[C@@H](OC(=O)c3ccccc3)[C@@H]3[C@]4(OC(C)=O)CO[C@@H]4C[C@H](O)[C@@]3(C)C(=O)[C@H](OC(=O)C3CC3)C(=C1C)C2(C)C [Compound 3971] | < 1
22 | C/C=C/C(=O)N[C@@H](c1ccco1)[C@@H](O)C(=O)O[C@H]1C[C@@]2(O)[C@@H](OC(=O)c3ccccc3)[C@@H]3[C@]4(OC(C)=O)CO[C@@H]4C[C@H](O)[C@@]3(C)C(=O)[C@H](OC(=O)CC)C(=C1C)C2(C)C [Compound 3982] | < 1
23 | CCOC(=O)N[C@@H](c1cccs1)[C@@H](O)C(=O)O[C@H]1C[C@@]2(O)[C@@H](OC(=O)c3ccccc3)[C@@H]3[C@]4(OC(C)=O)CO[C@@H]4C[C@H](O)[C@@]3(C)C(=O)[C@H](OC(=O)C3CC3)C(=C1C)C2(C)C [Compound 4051] | < 1
24 | CCCC(=O)N[C@@H](c1ccco1)[C@@H](O)C(=O)O[C@H]1C[C@@]2(O)[C@@H](OC(=O)c3ccccc3)[C@@H]3[C@]4(OC(C)=O)CO[C@@H]4C[C@H](O)[C@@]3(C)C(=O)[C@H](OC(=O)C3CC3)C(=C1C)C2(C)C [Compound 4062] | < 1
25 | CC(=O)O[C@@]12CO[C@@H]1C[C@H](O)[C@@]1(C)C(=O)[C@H](OC(=O)C3CC3)C3=C(C)[C@@H](OC(=O)[C@H](O)[C@@H](NC(=O)c4cccnc4)c4cccs4)C[C@@](O)([C@@H](OC(=O)c4ccccc4)[C@H]21)C3(C)C [Compound 4112] | < 10
26 | CCC(=O)O[C@H]1C(=O)[C@@]2(C)[C@H]([C@H](OC(=O)c3ccccc3)[C@]3(O)C[C@H](OC(=O)[C@H](O)[C@@H](NC(=O)c4cccnc4)c4cccs4)C(C)=C1C3(C)C)[C@]1(OC(C)=O)CO[C@@H]1C[C@@H]2O [Compound 4121] | < 10
27 | CCCC(=O)O[C@H]1C(=O)[C@@]2(C)[C@H]([C@H](OC(=O)c3ccccc3)[C@]3(O)C[C@H](OC(=O)[C@H](O)[C@@H](NC(=O)c4cccnc4)c4cccs4)C(C)=C1C3(C)C)[C@]1(OC(C)=O)CO[C@@H]1C[C@@H]2O [Compound 4190] | < 10
28 | CCC(=O)O[C@H]1C(=O)[C@@]2(C)[C@H]([C@H](OC(=O)c3ccccc3)[C@]3(O)C[C@H](OC(=O)[C@H](O)[C@@H](NC(=O)c4ccncc4)c4cccs4)C(C)=C1C3(C)C)[C@]1(OC(C)=O)CO[C@@H]1C[C@@H]2O [Compound 4207] | < 10
29 | CC(=O)O[C@@]12CO[C@@H]1C[C@H](O)[C@@]1(C)C(=O)[C@H](OC(=O)C3CC3)C3=C(C)[C@@H](OC(=O)[C@H](O)[C@@H](NC(=O)C=C(C)C)c4cccs4)C[C@@](O)([C@@H](OC(=O)c4ccccc4)[C@H]21)C3(C)C [Compound 4329] | < 1
30 | CCC(=O)O[C@H]1C(=O)[C@@]2(C)[C@H]([C@H](OC(=O)c3ccccc3)[C@]3(O)C[C@H](OC(=O)[C@H](O)[C@@H](NC(=O)C=C(C)C)c4cccs4)C(C)=C1C3(C)C)[C@]1(OC(C)=O)CO[C@@H]1C[C@@H]2O [Compound 4335] | < 1
31 | CCCC(=O)O[C@H]1C(=O)[C@@]2(C)[C@H]([C@H](OC(=O)c3ccccc3)[C@]3(O)C[C@H](OC(=O)[C@H](O)[C@@H](NC(=O)C=C(C)C)c4cccs4)C(C)=C1C3(C)C)[C@]1(OC(C)=O)CO[C@@H]1C[C@@H]2O [Compound 4344] | < 1
32 | CC(=O)O[C@@]12CO[C@@H]1C[C@H](O)[C@@]1(C)C(=O)[C@H](OC(=O)C3CC3)C3=C(C)[C@@H](OC(=O)[C@H](O)[C@@H](NC(=O)OCC(C)C)c4ccoc4)C[C@@](O)([C@@H](OC(=O)c4ccccc4)[C@H]21)C3(C)C [Compound 4665] | < 10
33 | CCCC(=O)O[C@H]1C(=O)[C@@]2(C)[C@H]([C@H](OC(=O)c3ccccc3)[C@]3(O)C[C@H](OC(=O)[C@H](O)[C@@H](NC(=O)OCC(C)C)c4ccoc4)C(C)=C1C3(C)C)[C@]1(OC(C)=O)CO[C@@H]1C[C@@H]2O [Compound 4704] | < 10
34 | CCC(=O)O[C@H]1C(=O)[C@@]2(C)[C@H]([C@H](OC(=O)c3ccccc3)[C@]3(O)C[C@H](OC(=O)[C@H](O)[C@@H](NC(=O)OCC(C)C)c4ccsc4)C(C)=C1C3(C)C)[C@]1(OC(C)=O)CO[C@@H]1C[C@@H]2O [Compound 4711] | < 10
